# Measurements taken from ChEMBL document CHEMBL4665624, “Synthesis of 5-(4-(1H-phenanthro[9,10-d]imidazol-2-yl)benzylidene)thiazolidine-2,4-dione as promising DNA and serum albumin-binding agents and evaluation of antitumor activity” (Eur J Med Chem, 2019).
# Calls of active or inactive are those of the source. The calls are words filed in the database; no cut-off is given here.
# Tests used:
# K562 = assay: Antitumor activity against human K562 cells assessed as cell growth inhibition at 10 uM incubated for 48 hrs by sulforhodamine B assay; type: functional; conditions: read-out: GI
# MOLT-4 = assay: Antitumor activity against human MOLT4 cells assessed as cell growth inhibition at 10 uM incubated for 48 hrs by sulforhodamine B assay; type: functional; conditions: read-out: GI
# RPMI-8226 = assay: Antitumor activity against human RPMI8226 cells assessed as cell growth inhibition at 10 uM incubated for 48 hrs by sulforhodamine B assay; type: functional; conditions: read-out: GI
# SR = assay: Antitumor activity against human SR cells assessed as cell growth inhibition at 10 uM incubated for 48 hrs by sulforhodamine B assay; type: functional; conditions: read-out: GI
# HOP-92 = assay: Antitumor activity against human HOP92 cells assessed as cell growth inhibition at 10 uM incubated for 48 hrs by sulforhodamine B assay; type: functional; conditions: read-out: GI
# NCI-H460 = assay: Antitumor activity against human NCI-H460 assessed as cell growth inhibition at 10 uM incubated for 48 hrs by sulforhodamine B assay; type: functional; conditions: read-out: GI
# COLO 205 = assay: Antitumor activity against human COLO205 cells assessed as cell growth inhibition at 10 uM incubated for 48 hrs by sulforhodamine B assay; type: functional; conditions: read-out: GI
# HCT-15 = assay: Antitumor activity against human HCT15 cells assessed as cell growth inhibition at 10 uM incubated for 48 hrs by sulforhodamine B assay; type: functional; conditions: read-out: GI
# KM12 = assay: Antitumor activity against human KM12 cells assessed as cell growth inhibition at 10 uM incubated for 48 hrs by sulforhodamine B assay; type: functional; conditions: read-out: GI
# SF-295 = assay: Antitumor activity against human SF295 cells assessed as cell growth inhibition at 10 uM incubated for 48 hrs by sulforhodamine B assay; type: functional; conditions: read-out: GI
# SNB-75 = assay: Antitumor activity against human SNB-75 cells assessed as cell growth inhibition at 10 uM incubated for 48 hrs by sulforhodamine B assay; type: functional; conditions: read-out: GI
# LOX IMVI = assay: Antitumor activity against human LOX IMVI cells assessed as cell growth inhibition at 10 uM incubated for 48 hrs by sulforhodamine B assay; type: functional; conditions: read-out: GI
# IGROV-1 = assay: Antitumor activity against human IGROV1 cells assessed as cell growth inhibition at 10 uM incubated for 48 hrs by sulforhodamine B assay; type: functional; conditions: read-out: GI
# OVCAR-4 = assay: Antitumor activity against human OVCAR-4 cells assessed as cell growth inhibition at 10 uM incubated for 48 hrs by sulforhodamine B assay; type: functional; conditions: read-out: GI
# OVCAR-8 = assay: Antitumor activity against human OVCAR-8 cells assessed as cell growth inhibition at 10 uM incubated for 48 hrs by sulforhodamine B assay; type: functional; conditions: read-out: GI
# NCI/ADR-RES = assay: Antitumor activity against human NCI/ADR-RES cells assessed as cell growth inhibition at 10 uM incubated for 48 hrs by sulforhodamine B assay; type: functional; conditions: read-out: GI
# ACHN = assay: Antitumor activity against human ACHN cells assessed as cell growth inhibition at 10 uM incubated for 48 hrs by sulforhodamine B assay; type: functional; conditions: read-out: GI
# RXF 393 = assay: Antitumor activity against human RXF 393 cells assessed as cell growth inhibition at 10 uM incubated for 48 hrs by sulforhodamine B assay; type: functional; conditions: read-out: GI
# PC-3 = assay: Antitumor activity against human PC-3 cells assessed as cell growth inhibition at 10 uM incubated for 48 hrs by sulforhodamine B assay; type: functional; conditions: read-out: GI
# BT-549 = assay: Antitumor activity against human BT-549 cells assessed as cell growth inhibition at 10 uM incubated for 48 hrs by sulforhodamine B assay; type: functional; conditions: read-out: GI
# Calf thymus DNA [1] = assay: Binding affinity to calf thymus DNA assessed as hypochromic effect by measuring decrease in intensity of absorption band at 398 nm at 20 uM by UV-Vis absorption spectrophotometric method; conditions: Bos taurus
# A549 = assay: Cytotoxicity against human A549/ATCC assessed as reduction in cell viability at 100 uM after 48 hrs by MTT assay; type: functional
# HEK293 [2] = assay: Cytotoxicity against human HEK293 assessed as reduction in cell viability at 100 uM after 48 hrs by MTT assay; type: cell-based; conditions: hek293, 48 h
# HEK293 [3] = assay: Cytotoxicity against human HEK293 assessed as reduction in cell viability at 10 uM after 48 hrs by MTT assay; type: cell-based; conditions: hek293, 48 h
# HEK293 [4] = assay: Cytotoxicity against human HEK293 assessed as reduction in cell viability at 1 uM after 48 hrs by MTT assay; type: cell-based; conditions: hek293, 48 h
# HEK293 [5] = assay: Cytotoxicity against human HEK293 assessed as reduction in cell viability at 0.1 uM after 48 hrs by MTT assay; type: cell-based; conditions: hek293, 48 h
# Calf thymus DNA [6] = assay: Binding affinity to calf thymus DNA assessed as quenching constant by fluorescence emission spectroscopic analysis; type: nucleic-acid assay; conditions: Bos taurus
# Calf thymus DNA [7] = assay: Binding affinity to calf thymus DNA assessed as binding constant by fluorescence emission spectroscopic analysis; type: nucleic-acid assay; conditions: Bos taurus
# Calf thymus DNA [8] = assay: Binding affinity to calf thymus DNA assessed as quenching in emission band at 600 nm by ethidium bromide competitive displacement assay; type: nucleic-acid assay; conditions: Bos taurus
# Calf thymus DNA [9] = assay: Binding affinity to calf thymus DNA assessed as Stern-Volmer quenching constant by ethidium bromide competitive displacement assay; type: nucleic-acid assay; conditions: Bos taurus
# Calf thymus DNA [10] = assay: Binding affinity to calf thymus DNA (unknown origin) assessed as binding constant by ethidium bromide competitive displacement assay; type: nucleic-acid assay; conditions: Bos taurus
# DNA [11] = assay: Binding affinity to human DNA in blood assessed as DNA intercalation by measuring hypochromic shift at 398 nm at 20 uM by UV-Vis spectral titration analysis; type: tissue-based
# DNA [12] = assay: Binding affinity to human DNA in blood assessed as Stern-Volmer quenching constant by fluorescence emission spectrum analysis; type: tissue-based
# DNA [13] = assay: Binding affinity to human DNA in blood assessed as binding constant by fluorescence emission spectrum analysis; type: tissue-based
# Albumin [14] = target: T1, Albumin (Bos taurus, UniProt P02769); assay: Binding affinity to bovine serum albumin assessed as formation of new absorption band at 400 nm at 0-10 uM by UV-vis absorption spectral titration analysis; type: ADME, cell-free; conditions: cattle
# T1 sequence (P02769 whole entry): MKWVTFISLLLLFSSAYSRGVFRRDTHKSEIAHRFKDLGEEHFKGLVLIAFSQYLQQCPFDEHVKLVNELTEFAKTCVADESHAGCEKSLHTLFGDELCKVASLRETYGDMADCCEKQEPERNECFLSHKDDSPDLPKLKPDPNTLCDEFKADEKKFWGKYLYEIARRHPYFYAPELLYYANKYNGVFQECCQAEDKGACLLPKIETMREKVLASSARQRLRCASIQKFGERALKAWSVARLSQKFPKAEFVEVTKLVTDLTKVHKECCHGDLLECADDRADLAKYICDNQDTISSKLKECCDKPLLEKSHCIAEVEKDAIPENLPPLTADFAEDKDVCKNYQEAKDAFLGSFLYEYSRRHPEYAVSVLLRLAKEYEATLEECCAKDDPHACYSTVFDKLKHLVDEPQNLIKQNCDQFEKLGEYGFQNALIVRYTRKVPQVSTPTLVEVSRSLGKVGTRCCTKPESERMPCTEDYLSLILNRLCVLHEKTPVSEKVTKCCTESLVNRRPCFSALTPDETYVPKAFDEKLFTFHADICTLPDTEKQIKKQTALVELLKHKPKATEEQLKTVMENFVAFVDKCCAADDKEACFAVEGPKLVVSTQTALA
# Albumin [15] = target: T1, Albumin; assay: Binding affinity to bovine serum albumin assessed as binding constant by UV-vis absorption spectral titration analysis based Benesi-Hildebrand equation analysis; type: ADME, cell-free; conditions: cattle
# Albumin [16] = target: T1, Albumin; assay: Binding affinity to bovine serum albumin assessed as Stern-Volmer quenching constant at 318K by fluorescence emission spectrum analysis; type: ADME, cell-free; conditions: cattle
# Albumin [17] = target: T1, Albumin; assay: Binding affinity to bovine serum albumin assessed as binding constant at 318K by fluorescence emission spectrum analysis; type: ADME, cell-free; conditions: cattle
# Albumin [18] = target: T1, Albumin; assay: Binding affinity to bovine serum albumin assessed as spontaneous interaction by measuring change in gibbs free energy at 318K by thermodynamic based analysis; type: ADME, cell-free; conditions: cattle
# Albumin [19] = target: T2, Albumin (Homo sapiens, UniProt P02768); assay: Binding affinity to human serum albumin assessed as increase in peak absorption intensity at 280 nm at 0-7 uM by UV-Vis absorption spectroscopy; type: ADME, cell-free; conditions: 0.28 µM
# T2 sequence (P02768 whole entry): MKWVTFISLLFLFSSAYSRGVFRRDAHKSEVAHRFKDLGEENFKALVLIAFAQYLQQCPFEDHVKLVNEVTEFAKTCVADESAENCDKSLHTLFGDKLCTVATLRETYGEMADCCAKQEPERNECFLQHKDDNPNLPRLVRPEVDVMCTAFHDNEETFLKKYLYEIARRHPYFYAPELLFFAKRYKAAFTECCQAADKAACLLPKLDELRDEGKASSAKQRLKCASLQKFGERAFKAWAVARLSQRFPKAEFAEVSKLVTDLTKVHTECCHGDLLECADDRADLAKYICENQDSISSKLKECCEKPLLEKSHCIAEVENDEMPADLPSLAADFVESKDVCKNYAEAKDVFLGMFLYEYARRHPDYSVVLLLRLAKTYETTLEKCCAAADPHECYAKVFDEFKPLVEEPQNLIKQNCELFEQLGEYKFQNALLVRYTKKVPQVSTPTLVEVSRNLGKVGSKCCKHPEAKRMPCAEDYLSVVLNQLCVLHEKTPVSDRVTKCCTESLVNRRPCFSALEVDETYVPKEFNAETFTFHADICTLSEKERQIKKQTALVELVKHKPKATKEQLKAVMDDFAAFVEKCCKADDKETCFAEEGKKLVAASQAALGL
# Albumin [20] = target: T2, Albumin; assay: Binding affinity to human serum albumin assessed as appearance of new absorption band at 400 nm at 0-7 uM by UV-Vis absorption spectroscopy; type: ADME, cell-free; conditions: 0.4 µM
# Albumin [21] = target: T2, Albumin; assay: Binding affinity to human serum albumin assessed as decrease in emission peak intensity band at 348 nm at 0-13 uM by fluorescence emission spectroscopy; type: ADME, cell-free; conditions: 0.348 µM
# Albumin [22] = target: T2, Albumin; assay: Binding affinity to human serum albumin assessed as Stern-Volmer quenching constant by fluorescence emission spectroscopy; type: ADME, cell-free
# Albumin [23] = target: T2, Albumin; assay: Binding affinity to human serum albumin assessed as binding constant by fluorescence emission spectroscopy; type: ADME, cell-free
structure (smiles),measurement,setting,value
O=C1NC(=O)/C(=C/c2ccc(-c3nc4c5ccccc5c5ccccc5c4[nH]3)cc2)S1,inhibition of growth at 10 µM,K562,68.1%
same,inhibition of growth at 10 µM,MOLT-4,47.1%
same,inhibition of growth at 10 µM,RPMI-8226,66.1%
same,inhibition of growth at 10 µM,SR,79.2%
same,inhibition of growth at 10 µM,HOP-92,21.4%
same,inhibition of growth at 10 µM,NCI-H460,19.7%
same,inhibition of growth at 10 µM,COLO 205,< 10%
same,inhibition of growth at 10 µM,HCT-15,50%
same,inhibition of growth at 10 µM,KM12,43.9%
same,inhibition of growth at 10 µM,SF-295,16.3%
same,inhibition of growth at 10 µM,SNB-75,< 10%
same,inhibition of growth at 10 µM,LOX IMVI,36.7%
same,inhibition of growth at 10 µM,IGROV-1,< 10%
same,inhibition of growth at 10 µM,OVCAR-4,< 10%
same,inhibition of growth at 10 µM,OVCAR-8,21.7%
same,inhibition of growth at 10 µM,NCI/ADR-RES,< 10%
same,inhibition of growth at 10 µM,ACHN,33.4%
same,inhibition of growth at 10 µM,RXF 393,19.1%
same,inhibition of growth at 10 µM,PC-3,51.9%
same,inhibition of growth at 10 µM,BT-549,63.7%
same,Activity,Calf thymus DNA [1],Active
same,Activity,A549,90%
same,Activity,HEK293 [2],15%
same,Activity,HEK293 [3],9%
same,Activity,HEK293 [4],6%
same,Activity,HEK293 [5],5%
same,Kq,Calf thymus DNA [6],1.88 10^11/M/s
same,Kb,Calf thymus DNA [7],1.95 10^5/M
same,Activity,Calf thymus DNA [8],Active
same,KSV,Calf thymus DNA [9],6.53 10^4/M
same,Kb,Calf thymus DNA [10],1 10^5/M
same,Activity,DNA [11],Active
same,KSV,DNA [12],3.46 10^3/M
same,Kb,DNA [13],7.09 10^5/M
same,Activity,Albumin [14],Active
same,Kb,Albumin [15],6.57 10^4/M
same,KSV,Albumin [16],3.51 10^5/M
same,Kb,Albumin [17],2.97 10^6/M
same,deltaG,Albumin [18],-9.41 kcal/mol
same,Activity,Albumin [19],Active
same,Activity,Albumin [20],Active
same,Activity,Albumin [21],Active
same,KSV,Albumin [22],3.01 10^6/M
same,Kb,Albumin [23],7.29 10^6/M
